Read-outs that look alike come from different tables or passages of the source.
Legend:
UACC-257 [1] = system: UACC-257
UO-31 [2] = system: UO-31
DU-145 = type: cell-based, human
HCT-15 [3] = system: HCT-15
MDA-N [4] = system: MDA-N
786-0 [5] = system: 786-0
SF-295 [6] = system: SF-295
HOP-62 [7] = system: HOP-62
MCF7 = assay: cells; details: Homo sapiens
SF-295 [8] = assay: cells; details: Homo sapiens
SK-OV-3 = assay: cells; details: Homo sapiens
HOP-62 [9] = assay: cells; details: Homo sapiens
SF-268 = assay: cells; details: Homo sapiens
[10] = system: human colon adenocarcinoma cell line, LS 174T; assay: cells; details: LS174T
Procedure: Cells were seeded in 96-well microtiter plates at densities of 1000 cells/well. The optimal seeding density was determined to ensure exponential growth in control wells throughout the experimental period and to obtain a linear relationship between absorbance at 492 nm and cell number when analyzed by the sulforhodamine B (SRB) assay (43). 24 hours after seeding the cells were incubated for 1 hour or continuously for 3 days with the drugs (concentration range 0.01 to 500 pM). The cells were washed once and then incubated in drug free medium for 6 days. At the end of the incubation cell growth was determined by the SRB assay, which quantifies viable cells by measuring their total cellular protein content. […] Similar studies were conducted against the growth of PC3 (human prostate cancer cells) and MCF-7 (human breast cancer cells).

EKVX = assay: cells; details: Homo sapiens
HS 578T = assay: cells; details: Homo sapiens
786-0 [11] = assay: cells; details: Homo sapiens
SW-620 = assay: cells; details: Homo sapiens
[12] = NCI in-vitro cytotoxicity screen, Breast Cancer panel; type: cell-based, human; details: Homo sapiens, read-out: LC50
Procedure: (§1) The compounds of this invention were also tested against the panel of 60 human cancer cell lines at the National Cancer Institute, Bethesda, Md. […] The cytotoxicity studies were conducted using a 48 hour exposure, and measuring the optical density of sulforhodamine B-derived color.

UO-31 [13] = assay: cells; details: Homo sapiens
UACC-257 [14] = assay: cells; details: Homo sapiens
SK-MEL-2 = assay: cells; details: Homo sapiens
MDA-N [15] = assay: cells; details: Homo sapiens
HCT-15 [16] = assay: cells; details: Homo sapiens
OVCAR-3 = assay: cells; details: Homo sapiens
[17] = system: panel of 60 human cancer cell lines; details: 48 hour exposure
HOP-92 = assay: cells; details: Homo sapiens
NCI-H460 = assay: NCI in-vitro cytotoxicity screen, Non-Small Cell Lung Cancer panel; type: cell-based; details: Homo sapiens
Procedure: as §1

SNB-75 = assay: cells; details: Homo sapiens

“4-(2-Chloroethyl)-3-[5-(5-benzofuran-2-carboxamido)indole-2-carboxamido]phenol [Compound 1]” showed a GI50 (UACC-257 [1]) of 1880 nM, a TGI (UACC-257 [1]) of 3.40E-06 Molar and a GI50 (UO-31 [2]) of 3000 nM. The TGI (UO-31 [2]) was 6.38E-06 Molar, the GI50 (DU-145) was 1120 nM and the TGI (DU-145) was 6.16E-06 Molar. For the same molecule, the GI50 (K-562) was 2880 nM, the TGI (K-562) was 9.59E-06 Molar and the GI50 (HCT-15 [3]) was 1910 nM. The TGI (HCT-15 [3]) was 4.89E-06 Molar, the GI50 (HCC-2998) was 1760 nM and the TGI (HCC-2998) was 3.56E-06 Molar. For the same molecule, the GI50 (MDA-N [4]) was 2280 nM, the TGI (MDA-N [4]) was 5.47E-06 Molar and the GI50 (A549/ATCC) was 1980 nM. For the same molecule, the TGI (A549/ATCC) was 6.58E-06 Molar, the GI50 (BT-549) was 3600 nM and the TGI (BT-549) was 2.05E-05 Molar. For the same molecule, the GI50 (786-0 [5]) was 2620 nM, the TGI (786-0 [5]) was 1.07E-05 Molar and the GI50 (SF-295 [6]) was 2320 nM. For the same molecule, the TGI (SF-295 [6]) was 6.46E-06 Molar, the GI50 (HOP-62 [7]) was 453 nM and the TGI (HOP-62 [7]) was 3.07E-06 Molar. It also gave a GI50 (UACC-62) of 1970 nM, a TGI (UACC-62) of 3.49E-06 Molar and a GI50 (NCI-H226) of 4090 nM. The TGI (NCI-H226) was 1.62E-05 Molar.
Molecule `COC(=O)c1[nH]c2c(O)cc(NC(=O)c3cc4cc(OC)c(OC)c(OC)c4[nH]3)c(CCCl)c2c1C(=O)OC` [Compound 22, Dimethyl 4-(2-chloroethyl)-7-hydroxy-5-(5,6,7-trimethoxyindole-2-carboxamido)indole-2,3-dicarboxylate] has a GI50 (MCF7; MCF7) of 22.4 nM, a CC50 (MCF7; MCF7, read-out: LC50) of 47500 nM and a GI50 (SF-295 [8]; SF-295) of 126 nM. For the same molecule, the CC50 (SF-295 [8]; SF-295, read-out: LC50) was greater than 50000 nM, the GI50 (SK-OV-3; SK-OV-3) was 269 nM and the CC50 (SK-OV-3; SK-OV-3, read-out: LC50) was 44600 nM. The GI50 (HOP-62 [9]; HOP-62) was 91.4 nM, the CC50 (HOP-62 [9]; HOP-62, read-out: LC50) was 8510 nM and the GI50 (SF-268; SF-268) was 13.8 nM. It also gave a CC50 (SF-268; SF-268, read-out: LC50) of 1170 nM, an IC50 [10] of 4 nM and an IC50 ([10]; 1 h) of 1860 nM. For the same molecule, the GI50 (EKVX) was 164 nM, the CC50 (EKVX; read-out: LC50) was 3250 nM and the GI50 (HS 578T) was 138 nM. For the same molecule, the CC50 (HS 578T; read-out: LC50) was 946 nM, the GI50 (786-0 [11]; 786-0) was 123 nM and the CC50 (786-0 [11]; 786-0, read-out: LC50) was greater than 50000 nM. For the same molecule, the GI50 (SW-620; SW-620) was 109 nM, the CC50 (SW-620; SW-620, read-out: LC50) was greater than 50000 nM and the CC50 [12] was greater than 50000 nM. The GI50 (UO-31 [13]; UO-31) was 98.8 nM, the CC50 (UO-31 [13]; UO-31, read-out: LC50) was greater than 50000 nM and the GI50 (UACC-257 [14]; UACC-257) was 170 nM. It also gave a CC50 (UACC-257 [14]; UACC-257, read-out: LC50) greater than 50000 nM, a GI50 (SK-MEL-2; SK-MEL-2) of 83.9 nM and a CC50 (SK-MEL-2; SK-MEL-2, read-out: LC50) of 339 nM. It also gave a GI50 (MDA-N [15]) of 150 nM, a CC50 (MDA-N [15]; read-out: LC50) greater than 50000 nM and a GI50 (HCT-15 [16]; HCT-15) of 259 nM. It also gave a CC50 (HCT-15 [16]; HCT-15, read-out: LC50) greater than 50000 nM, a GI50 (OVCAR-3; OVCAR-3) of 139 nM and a CC50 (OVCAR-3; OVCAR-3, read-out: LC50) of 23000 nM. The “cytotoxic activity in the NCI screen” value [17] was “activity in the micromolar range”, the GI50 (HOP-92; HOP-92) was 179 nM and the CC50 (HOP-92; HOP-92, read-out: LC50) was greater than 50000 nM. For the same molecule, the GI50 (NCI-H460) was 114 nM, the GI50 (SNB-75; SNB-75) was 62.8 nM and the CC50 (SNB-75; SNB-75, read-out: LC50) was 711 nM.

Reference: patent US20030073731A1, “Compositions and methods of the use thereof achiral analogues of CC-1065 and the duocarmycins” (priority 2000, published 2003)
